According to ChEMBL document CHEMBL1201862, “PubChem BioAssay data set” (2004):
Active and inactive are the calls of the source.

Key:
Assay type in all cases: functional
Melanocortin receptor 4 = Melanocortin receptor 4 (Homo sapiens, UniProt P32245); experiment: MC4R antagonist potency on cAMP, dose response, cell-based, TR-FRET, biased antagonists (AID 602298);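 also: antagonist potency against agonist-stimulated cAMP production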
[1] = nonselective inhibitors of cellular cAMP signaling, dose response, counter-screen for MC4R biased antagonist project, cell-based, TR-FRET cAMP detection (AID 602305);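 also: U2OS cells stimulated with forskolin near its EC80 as the cAMP inducer; potency is for inhibition of forskolin-stimulated cAMP signaling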
[2] = target: Cyclin-dependent kinase 2 (Homo sapiens, UniProt P24941);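 also: CDK2 measured as one member of a broad kinome profiling panel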
[3] = target: Serine/threonine-protein kinase pim-1 (Homo sapiens, UniProt P11309)
[4] = target: Cell division cycle 7-related protein kinase (Homo sapiens, UniProt O00311);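 also: value obtained from a kinome-wide kinase panel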
[5] = target: Homeodomain-interacting protein kinase 2 (Homo sapiens, UniProt Q9H2X6);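 also: measured within a kinome-wide kinase profiling panel, HIPK2 being one panel member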
[6] = target: MAP kinase-interacting serine/threonine-protein kinase 2 (Homo sapiens, UniProt Q9HBH9)
[7] = target: Interleukin-1 receptor-associated kinase 4 (Homo sapiens, UniProt Q9NWZ3)
[8] = target: Glycogen synthase kinase-3 beta (Homo sapiens, UniProt P49841);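 also: value comes from a broad kinome profiling panel, with GSK3B as the panel member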
[9] = target: cAMP-dependent protein kinase catalytic subunit alpha (Homo sapiens, UniProt P17612)
[10] = target: Dual specificity protein kinase CLK4 (Homo sapiens, UniProt Q9HAZ1)
[11] = target: Mitogen-activated protein kinase kinase kinase kinase 4 (Homo sapiens, UniProt O95819)
[12] = target: Neuropeptides B/W receptor type 1 (Homo sapiens, UniProt P48145); experiment: GPR7 antagonist potency, late-stage follow-up, cell-based, fluorescence, dose response, set 5 (AID 588566)
[13] = target: Melanin-concentrating hormone receptor 1 (Homo sapiens, UniProt Q99705); experiment: Late-stage fluorescence-based counterscreen for antagonists of the G-protein coupled receptor 7 (GPR7): cell-based dose response assay to identify antagonists of the melanin-concentrating hormone receptor 1 (MCHR1) Set 5.
Sequence of Melanin-concentrating hormone receptor 1 (Q99705 whole entry): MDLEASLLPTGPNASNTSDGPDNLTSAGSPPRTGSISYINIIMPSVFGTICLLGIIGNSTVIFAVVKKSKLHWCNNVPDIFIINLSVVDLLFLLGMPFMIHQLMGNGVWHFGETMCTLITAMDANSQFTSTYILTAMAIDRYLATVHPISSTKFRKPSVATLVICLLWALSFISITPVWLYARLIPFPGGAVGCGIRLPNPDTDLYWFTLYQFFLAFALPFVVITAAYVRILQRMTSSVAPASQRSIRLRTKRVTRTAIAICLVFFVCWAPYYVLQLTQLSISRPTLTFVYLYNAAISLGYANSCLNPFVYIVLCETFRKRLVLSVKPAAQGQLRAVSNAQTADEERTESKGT

Sequence of Mitogen-activated protein kinase kinase kinase kinase 4 (O95819 whole entry): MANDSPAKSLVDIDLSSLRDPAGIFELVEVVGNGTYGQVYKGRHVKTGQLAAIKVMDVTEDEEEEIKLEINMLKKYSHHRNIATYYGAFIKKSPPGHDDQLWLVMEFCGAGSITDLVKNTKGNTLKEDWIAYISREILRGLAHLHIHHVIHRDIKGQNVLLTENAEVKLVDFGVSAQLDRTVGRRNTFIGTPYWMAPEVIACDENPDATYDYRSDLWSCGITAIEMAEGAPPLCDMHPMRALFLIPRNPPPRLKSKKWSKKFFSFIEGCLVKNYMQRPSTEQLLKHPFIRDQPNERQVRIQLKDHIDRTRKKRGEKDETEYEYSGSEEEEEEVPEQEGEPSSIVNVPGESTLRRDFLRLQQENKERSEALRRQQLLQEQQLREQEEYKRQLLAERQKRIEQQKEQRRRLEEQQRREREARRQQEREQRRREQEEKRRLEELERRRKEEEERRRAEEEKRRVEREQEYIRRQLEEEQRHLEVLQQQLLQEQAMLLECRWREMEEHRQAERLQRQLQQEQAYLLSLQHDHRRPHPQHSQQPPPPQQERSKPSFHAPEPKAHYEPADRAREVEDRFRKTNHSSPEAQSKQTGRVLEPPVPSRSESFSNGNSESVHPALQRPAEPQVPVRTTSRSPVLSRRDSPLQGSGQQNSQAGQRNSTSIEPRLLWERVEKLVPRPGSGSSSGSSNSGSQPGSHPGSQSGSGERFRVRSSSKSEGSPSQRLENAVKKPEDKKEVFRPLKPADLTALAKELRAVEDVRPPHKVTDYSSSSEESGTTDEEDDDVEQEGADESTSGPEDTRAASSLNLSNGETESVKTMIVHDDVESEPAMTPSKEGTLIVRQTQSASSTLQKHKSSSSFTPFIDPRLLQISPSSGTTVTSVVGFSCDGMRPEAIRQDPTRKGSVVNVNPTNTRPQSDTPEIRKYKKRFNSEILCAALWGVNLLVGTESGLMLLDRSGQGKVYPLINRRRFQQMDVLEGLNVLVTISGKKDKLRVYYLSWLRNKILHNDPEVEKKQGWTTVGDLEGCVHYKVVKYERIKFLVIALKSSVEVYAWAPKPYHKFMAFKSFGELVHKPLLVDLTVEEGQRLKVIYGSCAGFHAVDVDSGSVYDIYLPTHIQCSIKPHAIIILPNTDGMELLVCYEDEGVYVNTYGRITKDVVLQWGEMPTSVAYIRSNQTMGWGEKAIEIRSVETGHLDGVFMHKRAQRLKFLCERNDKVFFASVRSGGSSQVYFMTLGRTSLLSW
Sequence of Cell division cycle 7-related protein kinase (O00311 whole entry): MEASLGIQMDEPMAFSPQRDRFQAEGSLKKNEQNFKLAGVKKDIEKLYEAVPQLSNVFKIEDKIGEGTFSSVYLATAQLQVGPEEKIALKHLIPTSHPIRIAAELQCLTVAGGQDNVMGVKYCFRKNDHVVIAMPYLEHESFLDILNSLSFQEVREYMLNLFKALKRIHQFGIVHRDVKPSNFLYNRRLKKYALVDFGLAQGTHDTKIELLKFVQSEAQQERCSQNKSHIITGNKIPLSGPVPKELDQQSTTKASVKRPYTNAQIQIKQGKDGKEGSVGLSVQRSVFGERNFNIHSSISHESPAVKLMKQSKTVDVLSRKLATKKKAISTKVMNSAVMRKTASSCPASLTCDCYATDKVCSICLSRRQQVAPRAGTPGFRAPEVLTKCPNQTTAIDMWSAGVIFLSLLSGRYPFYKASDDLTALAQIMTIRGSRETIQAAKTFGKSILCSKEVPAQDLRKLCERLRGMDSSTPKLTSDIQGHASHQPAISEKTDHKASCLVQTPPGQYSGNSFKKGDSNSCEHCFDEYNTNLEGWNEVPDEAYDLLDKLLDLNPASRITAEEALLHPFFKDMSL
Sequence of Glycogen synthase kinase-3 beta (P49841 whole entry): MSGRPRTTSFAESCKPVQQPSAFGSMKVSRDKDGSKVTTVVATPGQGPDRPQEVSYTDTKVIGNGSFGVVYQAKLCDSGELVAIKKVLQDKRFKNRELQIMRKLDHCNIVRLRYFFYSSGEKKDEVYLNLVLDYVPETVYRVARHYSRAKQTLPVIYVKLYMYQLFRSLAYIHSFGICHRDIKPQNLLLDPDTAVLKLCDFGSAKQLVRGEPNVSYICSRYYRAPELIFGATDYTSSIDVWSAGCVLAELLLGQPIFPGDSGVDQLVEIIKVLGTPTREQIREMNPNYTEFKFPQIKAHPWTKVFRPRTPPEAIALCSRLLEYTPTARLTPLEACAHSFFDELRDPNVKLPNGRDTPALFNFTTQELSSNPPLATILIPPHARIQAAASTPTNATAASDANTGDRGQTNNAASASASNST
Sequence of Dual specificity protein kinase CLK4 (Q9HAZ1 whole entry): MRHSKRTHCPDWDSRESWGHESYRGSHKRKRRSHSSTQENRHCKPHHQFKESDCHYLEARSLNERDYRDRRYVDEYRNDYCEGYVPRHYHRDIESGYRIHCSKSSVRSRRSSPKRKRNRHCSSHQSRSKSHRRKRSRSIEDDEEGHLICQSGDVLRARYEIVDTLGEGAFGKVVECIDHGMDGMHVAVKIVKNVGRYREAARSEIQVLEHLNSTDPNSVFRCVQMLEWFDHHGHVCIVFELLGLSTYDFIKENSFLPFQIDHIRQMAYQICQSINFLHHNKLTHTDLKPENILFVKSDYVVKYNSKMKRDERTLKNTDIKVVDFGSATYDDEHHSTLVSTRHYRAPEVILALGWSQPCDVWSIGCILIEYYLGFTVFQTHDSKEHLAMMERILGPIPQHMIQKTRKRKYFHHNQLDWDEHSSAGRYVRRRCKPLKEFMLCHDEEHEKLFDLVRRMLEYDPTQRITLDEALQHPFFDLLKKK
Sequence of Melanocortin receptor 4 (P32245 whole entry): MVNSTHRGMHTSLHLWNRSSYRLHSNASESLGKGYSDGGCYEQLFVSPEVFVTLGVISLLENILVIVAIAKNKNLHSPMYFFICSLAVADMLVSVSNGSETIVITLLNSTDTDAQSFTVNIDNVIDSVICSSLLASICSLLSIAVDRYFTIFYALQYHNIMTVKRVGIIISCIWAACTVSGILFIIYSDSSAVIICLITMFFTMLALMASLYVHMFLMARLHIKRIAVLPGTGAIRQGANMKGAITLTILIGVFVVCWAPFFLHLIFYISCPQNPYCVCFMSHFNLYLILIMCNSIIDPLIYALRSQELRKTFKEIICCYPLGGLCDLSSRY
Sequence of MAP kinase-interacting serine/threonine-protein kinase 2 (Q9HBH9 whole entry): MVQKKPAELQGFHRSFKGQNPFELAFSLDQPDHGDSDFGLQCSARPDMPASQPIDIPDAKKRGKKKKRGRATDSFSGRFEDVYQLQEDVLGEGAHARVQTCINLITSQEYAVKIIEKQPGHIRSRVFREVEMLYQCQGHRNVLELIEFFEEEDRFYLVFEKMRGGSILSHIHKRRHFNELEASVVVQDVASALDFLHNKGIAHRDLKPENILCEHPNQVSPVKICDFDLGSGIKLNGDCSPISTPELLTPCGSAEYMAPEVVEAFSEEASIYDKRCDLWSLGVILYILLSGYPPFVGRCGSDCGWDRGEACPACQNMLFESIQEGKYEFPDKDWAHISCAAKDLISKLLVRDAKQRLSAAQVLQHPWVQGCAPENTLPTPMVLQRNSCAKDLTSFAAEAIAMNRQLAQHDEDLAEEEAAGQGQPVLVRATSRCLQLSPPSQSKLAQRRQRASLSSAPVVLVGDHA
Sequence of Serine/threonine-protein kinase pim-1 (P11309 whole entry): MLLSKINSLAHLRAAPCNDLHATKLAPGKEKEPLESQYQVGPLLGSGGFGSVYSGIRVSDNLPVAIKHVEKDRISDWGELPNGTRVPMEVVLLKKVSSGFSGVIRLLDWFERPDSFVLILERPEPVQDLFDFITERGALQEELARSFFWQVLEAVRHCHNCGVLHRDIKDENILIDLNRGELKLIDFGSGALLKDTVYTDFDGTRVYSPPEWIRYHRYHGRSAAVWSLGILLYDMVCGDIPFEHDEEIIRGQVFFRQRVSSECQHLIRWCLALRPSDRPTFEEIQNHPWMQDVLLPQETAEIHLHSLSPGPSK
Sequence of Interleukin-1 receptor-associated kinase 4 (Q9NWZ3 whole entry): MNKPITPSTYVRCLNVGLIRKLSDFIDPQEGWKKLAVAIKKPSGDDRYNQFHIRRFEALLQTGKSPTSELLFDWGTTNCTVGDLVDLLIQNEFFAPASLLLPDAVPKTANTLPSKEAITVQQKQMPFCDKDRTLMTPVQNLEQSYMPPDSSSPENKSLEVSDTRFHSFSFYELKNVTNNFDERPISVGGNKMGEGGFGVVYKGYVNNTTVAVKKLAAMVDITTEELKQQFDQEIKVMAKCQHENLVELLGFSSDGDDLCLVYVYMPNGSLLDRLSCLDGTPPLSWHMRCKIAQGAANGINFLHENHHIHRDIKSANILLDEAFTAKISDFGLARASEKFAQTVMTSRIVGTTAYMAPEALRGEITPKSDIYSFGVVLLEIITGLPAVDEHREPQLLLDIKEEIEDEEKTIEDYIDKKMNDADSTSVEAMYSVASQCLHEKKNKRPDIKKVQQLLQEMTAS
Sequence of Neuropeptides B/W receptor type 1 (P48145 whole entry): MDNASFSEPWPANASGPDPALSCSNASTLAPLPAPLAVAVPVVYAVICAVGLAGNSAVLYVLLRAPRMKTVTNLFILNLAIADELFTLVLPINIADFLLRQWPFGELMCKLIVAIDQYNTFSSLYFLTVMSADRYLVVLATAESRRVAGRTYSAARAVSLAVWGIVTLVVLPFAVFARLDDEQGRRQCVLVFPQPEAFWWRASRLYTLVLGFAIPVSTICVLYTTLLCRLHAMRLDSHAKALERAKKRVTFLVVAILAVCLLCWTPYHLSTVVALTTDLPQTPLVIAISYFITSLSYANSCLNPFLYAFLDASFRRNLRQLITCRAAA

In the case of `COc1cc(C(=S)N2CCOCC2)ccc1OC(=O)c1ccc([N+](=O)[O-])cc1[N+](=O)[O-]`, the IC50 (Melanocortin receptor 4) is reported as > 64.6 µM (inactive) and the IC50 [1] is reported as > 64.6 µM (inactive).
With `NC1CCCCC1Nc1nccc(Nc2ccccc2C(=O)O)n1` (centres undefined) the Ki [2] was > 7.94 µM (inactive), the Ki [3] was 2 µM (active) and the Ki [4] was 0.0316 µM (active). The Ki [5] was > 3.16 µM (inactive), the Ki [6] was > 10 µM (inactive) and the Ki [7] was > 10 µM (inactive). The Ki [8] was 6.31 µM (active), the Ki [9] was > 7.94 µM (inactive) and the Ki [10] was > 10 µM (inactive). For the same molecule, the Ki [11] was > 10 µM (inactive).
With `O=c1c(Oc2ccc3c(c2)OCO3)c(Cl)cnn1Cc1cccc2ccccc12` the IC50 [12] was 0.368 µM (active) and the IC50 [13] was 11.2 µM (inactive).
